Substitutions are numbered along the chain they refer to. Bounds are passed on as bounds.

One data set addresses T1, LZK (Homo sapiens, UniProt O43283).
T1 sequence (O43283 1-966): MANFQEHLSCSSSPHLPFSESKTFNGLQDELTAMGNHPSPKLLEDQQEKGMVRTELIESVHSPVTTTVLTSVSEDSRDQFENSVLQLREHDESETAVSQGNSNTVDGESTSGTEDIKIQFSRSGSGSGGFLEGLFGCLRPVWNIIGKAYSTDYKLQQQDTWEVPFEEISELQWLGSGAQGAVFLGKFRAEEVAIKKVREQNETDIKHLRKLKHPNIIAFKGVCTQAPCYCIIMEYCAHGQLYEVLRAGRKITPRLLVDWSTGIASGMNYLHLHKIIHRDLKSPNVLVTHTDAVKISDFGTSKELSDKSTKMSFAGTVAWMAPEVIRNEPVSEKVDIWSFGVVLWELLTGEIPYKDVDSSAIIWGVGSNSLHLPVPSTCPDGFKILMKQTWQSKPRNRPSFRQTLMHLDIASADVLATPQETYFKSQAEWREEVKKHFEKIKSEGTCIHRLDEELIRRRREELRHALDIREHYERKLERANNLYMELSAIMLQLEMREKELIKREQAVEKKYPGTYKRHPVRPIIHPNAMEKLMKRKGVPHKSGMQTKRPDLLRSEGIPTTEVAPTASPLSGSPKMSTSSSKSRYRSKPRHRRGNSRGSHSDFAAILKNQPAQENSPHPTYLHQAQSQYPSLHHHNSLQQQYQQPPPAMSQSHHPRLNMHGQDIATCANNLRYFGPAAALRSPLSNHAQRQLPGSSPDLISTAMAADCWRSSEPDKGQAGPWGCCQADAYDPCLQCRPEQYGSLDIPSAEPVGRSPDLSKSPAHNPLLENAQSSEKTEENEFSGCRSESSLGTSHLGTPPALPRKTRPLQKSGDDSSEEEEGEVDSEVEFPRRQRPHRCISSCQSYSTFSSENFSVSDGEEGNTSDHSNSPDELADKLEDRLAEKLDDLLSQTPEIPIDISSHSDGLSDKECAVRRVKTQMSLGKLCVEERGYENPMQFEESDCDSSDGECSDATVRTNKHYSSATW
The data set is described as follows: In vitro kinase assay (LZK phosphorylation of MKK7). The following applies: 100 μM ATP. More on the design: purchased Carna Biosciences 09-114. It is filed as biochemical. The protocol: The assay was performed with 100 μM ATP at 37° C. for 30 minutes. Following the addition of 4× reducing SDS sample buffer, proteins were resolved by sodium dodecyl sulfate-polyacrylamide gel electrophoresis (SDS-PAGE) and immunoblot analysis was performed as stated previously.

The test system of the next data set is CAL33 xenograft. The data set is described as follows: HNSCC CAL33 xenograft mouse model. It is filed as in vivo. The settings on record: 100 mg/kg, b.i.d. The protocol: For the HNSCC xenograft mouse model, 2×10^6 CAL33 cells were injected subcutaneously into the right posterior flank of 6-8-week-old immunodeficient NOD-scid IL2Rgamma^null (NSG) female mice (obtained from the NCI Center for Cancer Research Animal Resource Program). […]. The animals were treated for approximately 4-8 weeks, with study endpoints of over 20% body weight loss, tumor volume exceeding 2.0 cm^3 in diameter, or significant (greater than 80%) tumor regression observed with specific treatment. […] Body weights and tumor size (tumor volume=[length ×width ×height]/2) were measured twice weekly. At the endpoint of each study, tumors were harvested, cleaned, weighed, and photographed for analysis.
For the IHC analysis for the studies involving the CAL33 xenograft and PDX 391396-364-R mousemodels, staining was performed by the Molecular Histopathology Laboratory (MHL) at the National Cancer Institute at Frederick. Briefly, tissues were fixed in buffered 10% formalin, embedded in paraffin, and sectioned at 5 μm before staining with hematoxylin and eosin (H&E). Additionally, sections were stained using the Leica Biosystems' BondRX auto-stainer with an antibody for cleaved caspase-3 (Cell Signaling Technology, #9661, 1:100, 60 minutes). Slides were blinded and scanned using an Aperio AT2 scanner (Leica Biosystems). Image analysis wasperformed using HALO imaging software (Indica Labs). The shown tumor regions exclude artifacts and necrotic regions. IHC analysis performed by Crown Biosciences San Diego for the PDX HN5120 study was similar except for the cleaved caspase-3 antibody (Cell Signaling Technology, #96645, 1:500, 20 minutes).

The next data set addresses T2, LZK^Q240S (Homo sapiens, UniProt O43283, Q240S).
T2 construct: FLAG (transient 293T overexpression vector); expressed in transfected cells
T2 sequence (O43283 1-966 Q240S): T1 sequence (O43283 1-966) with Q240S
Nature of the data set: JNK signaling with drug-resistant mutant LZK Q240S. The class given is cell-based. The following applies: drug-resistant mutant expression. As to the method: The ViraPower HiPerform T-REx Gateway Expression System (Invitrogen) was used to generate cells with tetracycline-inducible expression of LZK. […] Cell lines were generated by antibiotic selection (blasticidin [Gibco] and geneticin [Gibco]). Doxycycline (Sigma-Aldrich) was used at 1 μg/mL to induce LZK expression.
Protein concentrations were determined from the cell lysate by using 660 nm Protein Assay Reagent (Pierce).

A short description of data set [1]: Rat liver microsomal (RLM) stability assay. The class given is in vitro ADME. The following applies: rat liver microsomes; read-out: RLM Stability (t1/2).

`N#Cc1ccnc(Nc2cc(C3CCN(C4COC4)CC3)cc(N3CCC(F)(F)C3)n2)c1` [GNE-3511]: the “in vitro phosphorylation of MKK7” value on LZK was “decreased in vitro phosphorylation of MKK7”. Also, in the data set with CAL33 xenograft, the “cleaved caspase-3 expression (IHC) in tumors” value is recorded as “increase in cleaved caspase-3 expression”. The body weight result in the data set with CAL33 xenograft (five days on/two days off) was “decreases in body weight”. Also, in the data set on CAL33 xenograft (five days on/two days off, oral gavage, n=10), the tumor growth result is “tumor growth was suppressed”.

As to `CC(=O)N1CCC(c2cc(Nc3cc(C#N)ccn3)nc(N3CCC(F)(F)C3)c2)CC1` [LZK inhibitor 2], the “JNK signaling / catalytic activity of LZK Q240S in presence of inhibitor” value on LZK^Q240S was “rescued JNK signaling”.

With `Cc1ncsc1-c1ccc([C@H](C)NC(=O)[C@@H]2C[C@@H](O)CN2C(=O)[C@@H](NC(=O)CCCCCCC(=O)N2CCC(c3cc(Nc4cc(C#N)ccn4)nc(N4CCC(F)(F)C4)c3)CC2)C(C)(C)C)cc1` [Compound 3], the half-life in data set [1] was over 30 min.
